Source: the OligoGym collection
Bases are written 5' to 3'; sugars and linkages follow in the same order, as letters with counts (s phosphorothioate, o phosphodiester; PS: all linkages phosphorothioate). The collection does not say whether C is 5-methylated. l = locked nucleic acid (LNA); d = 2'-deoxy (DNA)

target: Tau; assay: rat primary cortical neurons, FLIPR, 25 uM ASO

Going from “TTCATCTACTTTTCAGCT (sugars l4 d12 l2, PS)” to “TTCATGTTAAATCCCTC (sugars l4 d10 l3, PS)”, the calcium oscillation score rises from 47.2 % of control to 103 % of control.

Going from “TTCCACATTTTACAGTA (sugars l3 d10 l4, PS)” to “TTCCACTACAAGCTCCA (sugars l3 d12 l2, PS)”, the calcium oscillation score falls from 76.6 % of control to 53.9 % of control.

Compared with “TTCCACTACAAGCTCCAC (sugars l3 d13 l2, PS)”, TTCCAGTCCCGTCTTT (sugars l3 d10 l3, PS) is higher in calcium oscillation score: 52 % of control for the first, 73.1 % of control for the second.

First: TTCCATCACTTCGAACTCCT (sugars l3 d14 l3, PS)
Second: TTCCATCCTAAGTCAACC (sugars l3 d13 l2, PS)
The calcium oscillation score of the first is lower: 13.6 % of control for the first, 70.6 % of control for the second.

Going from TTCCATCTTACTAATAG (sugars l4 d9 l4, PS) to “TTCCCAAATTCCTCATAATC (sugars l3 d15 l2, PS)”, the calcium oscillation score rises from 49.2 % of control to 69.1 % of control.

First: TTCCCACAATTCCTACA (sugars l3 d12 l2, PS)
Second: TTCCCTTAATTTCACC (sugars l3 d10 l3, PS)
The calcium oscillation score of the first is lower: 73.4 % of control for the first, 127 % of control for the second.

Going from “TTCCTAATTCCCAAATTCC (sugars l3 d14 l2, PS)” to TTCCTCAGAAGGCATT (sugars l3 d10 l3, PS), the calcium oscillation score falls from 62.1 % of control to 36.9 % of control.

First: TTCCTGCAAATTCTCAA (sugars l4 d10 l3, PS)
Second: TTCCTGGACCACCTTA (sugars l3 d10 l3, PS)
The calcium oscillation score of the first is higher: 61.7 % of control for the first, 59.3 % of control for the second.

Going from “TTCCTGGCCATCTTATGCTG (sugars l3 d14 l3, PS)” to “TTCCTTTCAATGACCAA (sugars l3 d10 l4, PS)”, the calcium oscillation score rises from 22 % of control to 56.6 % of control.

Compared with “TTCGAAACCAAGGTCCCACC (sugars l3 d14 l3, PS)”, “TTCTAATTTAGTCACCA (sugars l3 d10 l4, PS)” is higher in calcium oscillation score: 27.5 % of control for the first, 65.9 % of control for the second.

Going from “TTCTAGTTATACAGTTGGCC (sugars l3 d14 l3, PS)” to “TTCTCAAGTCTCTTTAA (sugars l3 d11 l3, PS)”, the calcium oscillation score rises from 26.2 % of control to 70.7 % of control.

Going from “TTCTCACCAAACCCAGA (sugars l3 d12 l2, PS)” to “TTCTCAGCACACCATTA (sugars l3 d12 l2, PS)”, the calcium oscillation score rises from 57.8 % of control to 60.1 % of control.

Compared with TTCTCGCGGAAGGTCA (sugars l3 d10 l3, PS), TTCTCTAATTGTCCAAT (sugars l4 d9 l4, PS) is higher in calcium oscillation score: 0 % of control for the first, 64 % of control for the second.

Going from “TTCTCTCTTAACTTTATTTT (sugars l4 d12 l4, PS)” to “TTCTGAATTCCTATCAT (sugars l4 d10 l3, PS)”, the calcium oscillation score falls from 93 % of control to 40.1 % of control.

First: TTCTTAGAGGACTGCAACGC (sugars l3 d14 l3, PS)
Second: TTCTTCATTCTTGCCC (sugars l2 d12 l2, PS)
The calcium oscillation score of the first is higher: 23.9 % of control for the first, 15.5 % of control for the second.

First: TTCTTCCATCCTAAGTCA (sugars l3 d13 l2, PS)
Second: TTCTTCCTTTGTAATTC (sugars l4 d11 l2, PS)
The calcium oscillation score of the first is higher: 51.7 % of control for the first, 43.5 % of control for the second.

Going from “TTCTTCCTTTGTAATTCC (sugars l3 d13 l2, PS)” to TTCTTGTGATGCAGGA (sugars l3 d10 l3, PS), the calcium oscillation score rises from 39.6 % of control to 61.3 % of control.

First: TTCTTGTTCTAACCCCA (sugars l3 d12 l2, PS)
Second: TTCTTTTTTTTTCCACACTC (sugars l3 d15 l2, PS)
The calcium oscillation score of the first is higher: 68.1 % of control for the first, 27.4 % of control for the second.

“TTGAAGTCAAGCTTCTCAGA (sugars l3 d14 l3, PS)” and TTGAAGTCCCGAGC (sugars l3 d8 l3, PS) are the same in calcium oscillation score: 0 % of control for the first, 0 % of control for the second.

Compared with TTGAAGTCCCGAGCC (sugars l3 d9 l3, PS), TTGAAGTCCCGAGCCA (sugars l3 d10 l3, PS) is higher in calcium oscillation score: 0 % of control for the first, 2.38 % of control for the second.

“TTGAAGTCCCGAGCCAAAGC (sugars l3 d14 l3, PS)” and TTGAGTTGAGGGACCC (sugars l3 d10 l3, PS) are the same in calcium oscillation score: 0 % of control for the first, 0 % of control for the second.

Going from TTGATAAAACATCCCT (sugars l4 d8 l4, PS) to TTGATACCCTTCCTCA (sugars l3 d10 l3, PS), the calcium oscillation score falls from 65 % of control to 14.3 % of control.

Going from “TTGCAACTTTAACTCCA (sugars l4 d11 l2, PS)” to “TTGCCTAATGAGCCACACTT (sugars l3 d14 l3, PS)”, the calcium oscillation score falls from 80.8 % of control to 36.5 % of control.

Compared with TTGCTCAGGTCAACTG (sugars l3 d10 l3, PS), “TTGCTTTTCCCAATTAT (sugars l4 d11 l2, PS)” is higher in calcium oscillation score: 42.9 % of control for the first, 54.5 % of control for the second.

Going from “TTGGAAAGATGAAATTTGCT (sugars l3 d14 l3, PS)” to TTGGAGCCTACATAGA (sugars l3 d10 l3, PS), the calcium oscillation score falls from 1.45 % of control to 0 % of control.

Compared with “TTGGAGTGCTCTTAGCATCA (sugars l3 d14 l3, PS)”, TTGGATCAGAGGGTCT (sugars l3 d10 l3, PS) is higher in calcium oscillation score: 7.78 % of control for the first, 11.1 % of control for the second.

First: TTGGCGTTCTCGCGGA (sugars l3 d10 l3, PS)
Second: TTGGCTTTGGCGTT (sugars l3 d8 l3, PS)
The calcium oscillation score of the first is lower: 0 % of control for the first, 96.2 % of control for the second.

Compared with TTGGCTTTGGCGTTCT (sugars l3 d10 l3, PS), TTGGGTGGAGTACGGA (sugars l3 d10 l3, PS) is lower in calcium oscillation score: 74.5 % of control for the first, 0 % of control for the second.

Going from “TTGGGTGGAGTACGGACCAC (sugars l3 d14 l3, PS)” to TTGTACACGATCTCCG (sugars l3 d10 l3, PS), the calcium oscillation score rises from 0 % of control to 55.2 % of control.

First: TTGTAGACTATTTG (sugars l3 d8 l3, PS)
Second: TTGTAGACTATTTGCACACT (sugars l3 d14 l3, PS)
The calcium oscillation score of the first is higher: 63.3 % of control for the first, 40.7 % of control for the second.

Compared with “TTGTCCAGGGACCCAATCTT (sugars l3 d14 l3, PS)”, TTGTGATGCAGGAG (sugars l3 d8 l3, PS) is lower in calcium oscillation score: 3.32 % of control for the first, 0 % of control for the second.

Going from “TTTAACTCAAATCAATTCT (sugars l4 d11 l4, PS)” to “TTTAACTCAAATCAATTCTC (sugars l4 d12 l4, PS)”, the calcium oscillation score falls from 72.6 % of control to 65.7 % of control.

First: TTTAATTCACACAACAAACT (sugars l4 d12 l4, PS)
Second: TTTACAAAGTCCACTTT (sugars l4 d9 l4, PS)
The calcium oscillation score of the first is higher: 89.1 % of control for the first, 53 % of control for the second.

First: TTTACACCACACTGTC (sugars l3 d10 l3, PS)
Second: TTTACCAATTTGCCTAA (sugars l4 d9 l4, PS)
The calcium oscillation score of the first is higher: 83.3 % of control for the first, 43.1 % of control for the second.

First: TTTACCCATCTTAATTCATT (sugars l4 d14 l2, PS)
Second: TTTAGCAGAGGAACGT (sugars l3 d10 l3, PS)
The calcium oscillation score of the first is higher: 78.1 % of control for the first, 15.6 % of control for the second.

Compared with “TTTAGTTTTCCCACCCAA (sugars l2 d13 l3, PS)”, TTTATAGGTGCATAGT (sugars l2 d10 l4, PS) is lower in calcium oscillation score: 69.4 % of control for the first, 0 % of control for the second.

Going from “TTTATCCCTCCATGATT (sugars l2 d12 l3, PS)” to “TTTATGATGGATGTTGCCTA (sugars l3 d14 l3, PS)”, the calcium oscillation score falls from 58.8 % of control to 6.64 % of control.

First: TTTATTAATTCATAAATGAC (sugars l3 d14 l3, PS)
Second: TTTATTTCCAAATTCACTTT (sugars l1 d17 l2, PS)
The calcium oscillation score of the first is lower: 46.3 % of control for the first, 163 % of control for the second.

Compared with “TTTATTTCCAAATTCACTTT (sugars l2 d16 l2, PS)”, “TTTATTTCCAAATTCACTTT (sugars l3 d14 l3, PS)” is higher in calcium oscillation score: 141 % of control for the first, ≥ 200 % of control for the second.

Going from “TTTATTTCCAAATTCACTTT (sugars l4 d11 l5, PS)” to “TTTATTTCCAAATTCACTTT (sugars l5 d10 l5, PS)”, the calcium oscillation score rises from 138 % of control to ≥ 200 % of control.

Going from “TTTATTTCCAAATTCACTTT (sugars l5 d11 l4, PS)” to “TTTATTTCCAAATTCACTTT (sugars ldlllddddddddddlldll, PS)”, the calcium oscillation score falls from 115 % of control to 83.1 % of control.

Compared with “TTTATTTCCAAATTCACTTT (sugars lldllddddddddddlldll, PS)”, TTTCAACTCTTAGCAT (sugars l4 d8 l4, PS) is lower in calcium oscillation score: 106 % of control for the first, 70.8 % of control for the second.

Going from TTTCAACTCTTAGCATC (sugars l4 d9 l4, PS) to “TTTCAACTCTTAGCATCC (sugars l2 d12 l4, PS)”, the calcium oscillation score falls from 70.8 % of control to 52.5 % of control.

Going from “TTTCATCTACTTTTCAGC (sugars l4 d12 l2, PS)” to “TTTCATGTTAAATCCCT (sugars l4 d10 l3, PS)”, the calcium oscillation score rises from 39.4 % of control to 94.2 % of control.

Going from “TTTCCCCATTTATCCTT (sugars l4 d11 l2, PS)” to “TTTCCCCATTTATCCTTC (sugars l2 d14 l2, PS)”, the calcium oscillation score falls from 87.4 % of control to 49.4 % of control.

Compared with “TTTCCTGCAAATTCTCA (sugars l4 d10 l3, PS)”, “TTTCTCAATGTAACCTC (sugars l3 d10 l4, PS)” is higher in calcium oscillation score: 66.8 % of control for the first, 71.6 % of control for the second.

First: TTTCTCTAATTGTCCAA (sugars l4 d9 l4, PS)
Second: TTTCTCTCTTAACTTTATTT (sugars l4 d12 l4, PS)
The calcium oscillation score of the first is lower: 56.6 % of control for the first, 90.4 % of control for the second.

Compared with TTTGAAGTCCCGAGCC (sugars l3 d10 l3, PS), “TTTGAAGTCCCGAGCCAAAG (sugars l3 d14 l3, PS)” is lower in calcium oscillation score: 22.4 % of control for the first, 0 % of control for the second.

Going from TTTGAGTTGAGGGACC (sugars l3 d10 l3, PS) to TTTGATAAAACATCCC (sugars l4 d8 l4, PS), the calcium oscillation score rises from 0 % of control to 89 % of control.

Compared with “TTTGCTTCACACACCAC (sugars l2 d12 l3, PS)”, “TTTGGAAAGATGAAATTTGC (sugars l3 d14 l3, PS)” is lower in calcium oscillation score: 89 % of control for the first, 7.77 % of control for the second.

First: TTTGGCGTTCTCGC (sugars l3 d8 l3, PS)
Second: TTTGTAGACTATTT (sugars l3 d8 l3, PS)
The calcium oscillation score of the first is lower: 28.7 % of control for the first, 90.7 % of control for the second.

TTTGTAGACTATTTG (sugars l3 d9 l3, PS) and TTTGTAGACTATTTGC (sugars l3 d10 l3, PS) are the same in calcium oscillation score: 0 % of control for the first, 0 % of control for the second.

Going from TTTGTCATCGCTTCCA (sugars l3 d10 l3, PS) to “TTTTAACTCCCAACTCTTT (sugars l2 d13 l4, PS)”, the calcium oscillation score rises from 20.7 % of control to 99.7 % of control.

Going from “TTTTAATTAAATTTCTCCCT (sugars l4 d13 l3, PS)” to “TTTTACCAATTTGCCTA (sugars l2 d11 l4, PS)”, the calcium oscillation score falls from 104 % of control to 46.2 % of control.

“TTTTATTTCCTCCGCCA (sugars l2 d13 l2, PS)” was tested, and the calcium oscillation score was 18.5 % of control.
